Where a name gives a salt, the structure may show the parent alone.
Biological target: MCH receptor (Homo sapiens, UniProt Q99705)
Assay: High throughput functional screening FLIPR/FDSS6000 (intracellular Ca2+ evoked by MCH)
Type: cell-based
Settings: FLIPR/FDSS, antagonist activity vs 50 nM MCH; class by percent of control at 10^−7 M or IC50; read-out: class
Source text: High Throughput Functional Screening: FLIPR™
This assay utilized a non-endogenous, constitutively active version of the MCH receptor.
The concentration of free Ca^2+ in the cytosol of any cell is extremely low, whereas its concentration in the extracellular fluid and endoplasmic reticulum (ER) is very high. Thus, there is a large gradient tending to drive Ca^2+ into the cytosol across both the plasma membrane and ER. The FLIPR™ and FDSS6000™ systems (Molecular Devices Corporation, […] Photonics K.K.) are designed to perform functional cell-based assays, such as the measurement of intracellular calcium for high-throughput screening. The measurement of fluorescent is associated with calcium release upon activation of the Gq-coupled receptors.
Fluorometric Imaging Plate Reader system was used to allow for rapid, kinetic measurements of intracellular fluorescence in 96 well microplates (or 384 well microplates). Simultaneous measurements of fluorescence in all wells can be made by FLIPR or FDSS6000™ every second with high sensitivity and precision. These systems are ideal for measuring cell-based functional assays such as monitoring the intracellular calcium fluxes that occur within seconds after activation of the Gq coupled receptor.
Briefly, the cells are seeded into 96 well at 5.5×10^4 cells/well with complete culture media (Dulbecco's Modified Eagle Medium with 10% fetal bovine serum, 2 mM L-glutamine, 1 mM sodium pyruvate and 0.5 mg/ml G418, pH 7.4) for the assay next day. On the day of assay, the media is removed and the cells are incubated with 100 μl of loading buffer (4 μM Fluo4-AM in complete culture media containing 2.5 mM Probenicid, 0.5 mg/ml and 0.2% bovine serum albumin) in 5% CO2 incubator at 37° C. for 1 hr. The loading buffer is removed, and the cells are washed with wash buffer (Hank's Balanced Salt Solution containing 2.5 mM Probenicid, 20 mM HEPES, 0.5 mg/ml and 0.2% bovine serum albumin, pH 7.4)). One hundred fifty μl of wash buffer containing various concentrations of test compound is added to the cells, and the cells are incubated in 5% CO2 incubator at 37° C. for 30 min. […] 530 nm for 290 second. When antagonist activity of compound is tested, 50 nM of MCH is used.
Use of FLIPR™ and FDSS6000™ can be accomplished by following manufacturer's instruction (Molecular Device Corporation and […] Photonics K.K.).

| Structure (SMILES) | IC50 [nM] |
| --- | --- |
| Cc1cnc(N[C@H]2CC[C@@H](NC(=O)[C@@H]3C[C@H]3c3ccc(Cl)cc3)CC2)nc1N(C)C (relative stereo) [Example 3316, trans-2-(4-chlorophenyl)-N-(cis-4-{[4-(dimethylamino)-5-methylpyrimidin-2-yl]amino}cyclohexyl)-cyclopropanecarboxamide] | < 50 |
| Cc1cnc(N[C@H]2CC[C@@H](NC(=O)[C@@H]3C[C@H]3c3cccc(Cl)c3)CC2)nc1N(C)C (relative stereo) [Example 3317, trans-2-(3-chlorophenyl)-N-(cis-4-{[4-(dimethylamino)-5-methylpyrimidin-2-yl]amino}cyclohexyl)-cyclopropanecarboxamide] | < 50 |
| Cc1cnc(N[C@H]2CC[C@@H](NC(=O)[C@@H]3C[C@H]3c3ccc(F)c(F)c3)CC2)nc1N(C)C (relative stereo) [Example 3318, trans-2-(3,4-difluorophenyl)-N-(cis-4-{[4-(dimethylamino)-5-methylpyrimidin-2-yl]amino}cyclohexyl)-cyclopropanecarboxamide] | < 50 |
| Cc1cnc(N[C@H]2CC[C@@H](NC(=O)[C@@H]3C[C@H]3c3ccc(Cl)c(Cl)c3)CC2)nc1N(C)C (relative stereo) [Example 3319, trans-2-(3,4-dichlorophenyl)-N-(cis-4-{[4-(dimethylamino)-5-methylpyrimidin-2-yl]amino}cyclohexyl)-cyclopropanecarboxamide] | < 50 |
| Cc1cnc(N[C@H]2CC[C@@H](NC(=O)[C@@H]3C[C@H]3c3cc(C(F)(F)F)cc(C(F)(F)F)c3)CC2)nc1N(C)C (relative stereo) [Example 3320, trans-2-[3,5-bis(trifluoromethyl)phenyl]-N-(cis-4-{[4-(dimethylamino)-5-methylpyrimidin-2-yl]amino}cyclohexyl)-cyclopropanecarboxamide] | < 50 |

Same assay, conditions: FLIPR/FDSS, antagonist activity vs 50 nM MCH; class by percent of control at 10^−7 M or IC50; table after the classification; read-out: class

| Structure (SMILES) | IC50 [nM] |
| --- | --- |
| CNc1nc(N[C@H]2CC[C@@H](C(N)Cc3ccccc3OC(F)(F)F)CC2)nc2c1CCCC2 (relative stereo) [Example 12, N^4-Methyl-N^2-{cis-4-[(2-trifluoromethoxy-benzyl)-amino-methyl]-cyclohexyl}-5,6,7,8-tetrahydro-quinazoline-2,4-diamine dihydrochloride] | 50 to 200 |
| CN(C)c1nc(N[C@H]2CC[C@@H](C(N)Cc3ccccc3OC(F)(F)F)CC2)nc2c1CCCC2 (relative stereo) [Example 16, N^4,N^4-Dimethyl-N^2-{cis-4-[(2-trifluoromethoxy-benzyl)-amino-methyl]-cyclohexyl}-5,6,7,8-tetrahydro-quinazoline-2,4-diamine dihydrochloride] | < 50 |
| CNc1cc(N[C@H]2CC[C@@H](NCc3ccc(Br)cc3OC(F)(F)F)CC2)nc2ccccc12 [Example 1, N^2-[cis-4-(4-Bromo-2-triflouromethoxy-benzyl)-amino-cyclohexyl]-N^4-methyl-quinoline-2,4-diamine dihydrochloride] | 50 to 200 |
| CNc1cc(N[C@H]2CC[C@@H](NCCc3ccc(Br)cc3OC(F)(F)F)CC2)nc2ccccc12 [Example 2, N^2-{cis-4-[2-(4-Bromo-2-trifluoromethoxy-phenyl)-ethylamino]-cyclohexyl}-N^4-methyl-quinoline2,4-diamine dihydrochloride] | 50 to 200 |
| CNc1cc(N[C@H]2CC[C@@H](CNCc3ccc(Br)cc3OC(F)(F)F)CC2)nc2ccccc12 [Example 3, N^2-{cis-4-[(4-Bromo-2-trifluoromethhxy-benzyl)-amino-methyl]-cyclohexyl}-N^4-methyl-quinoline-2,4-diamine dihydrochloride] | < 50 |
| CN(C)c1cc(N[C@H]2CC[C@@H](NCc3ccc(Br)cc3OC(F)(F)F)CC2)nc2ccccc12 [Example 5, N^2-[cis-4-(4-Bromo-2-trifluoromethoxy-benzyl)-amino-cyclohexyl]-N^4,N^4-dimethyl-quinoline-2,4-diamine dihydrochloride] | 50 to 200 |
| CN(C)c1cc(N[C@H]2CC[C@@H](NCCc3ccc(Br)cc3OC(F)(F)F)CC2)nc2ccccc12 [Example 6, N^2-{cis-4-[2-(4-Bromo-2-trifluoromethoxy-phenyl)ethylamino]-cyclohexyl}-N^4,N^4-dimethyl-quinoline-2,4-diamine dihydrochloride] | 50 to 200 |
| CN(C)c1cc(N[C@H]2CC[C@@H](CNCc3ccc(Br)cc3OC(F)(F)F)CC2)nc2ccccc12 [Example 7, N^2-{cis-4-[(4-Bromo-2-trifluoromethoxy-benzyl)amino-methyl]-cyclohexyl}-N^4,N^4-dimethyl-quinoline-2,4-diamine dihydrochloride] | < 50 |
| CNc1nc(N[C@H]2CC[C@@H](NCc3ccc(Br)cc3OC(F)(F)F)CC2)nc2c1CCCC2 [Example 9, N^2-[cis-4-(4-Bromo-2-trifluoromethoxy-benzyl)amino-cyclohexyl]-N^4-methyl-5,6,7,8-tetrahydro-quinazoline-2,4-diamine dihydrochloride] | > 200 |
| CNc1nc(N[C@H]2CC[C@@H](NCCc3ccc(Br)cc3OC(F)(F)F)CC2)nc2c1CCCC2 [Example 10, N^2-{cis-4-[2-(4-Bromo-2-trifluorometboxy-phenyl)-ethylamino]-cyclohexyl}-N^4-methyl-5,6,7,8-tetrahydro-quinazoline-2,4-diamine dihydrochloride] | 50 to 200 |
| CNc1nc(N[C@H]2CC[C@@H](CNCc3ccc(Br)cc3OC(F)(F)F)CC2)nc2c1CCCC2 [Example 11, N^2-{cis-4-[(4-Bromo-2-trifluoromethoxy-beny)amino-methyl]-cyclobexyl}-N^4-methyl-5,6,7,8-tetrahydro-quinazoline-2,4-diamine dihydrochloride] | < 50 |
| CN(C)c1nc(N[C@H]2CC[C@@H](NCc3ccc(Br)cc3OC(F)(F)F)CC2)nc2c1CCCC2 [Example 13, N^2-[cis-4-(4-Bromo-2-trifluoromethoxy-benzyl)-amino-cyclobexyl]-N^4,N^4-dimethyl-5,6,7,8-tetrahydro-quinazoline-2,4-diamine dihydrochloride] | > 200 |
| CN(C)c1nc(N[C@H]2CC[C@@H](NCCc3ccc(Br)cc3OC(F)(F)F)CC2)nc2c1CCCC2 [Example 14, N^2-{cis-4-[2-(4-Bromo-2-trifluoromethoxy-phenyl)-ethylamino]-cyclohexyl}-N^4,N^4-dimethyl-5,6,7,8-tetrahydro-quinazoline-2,4-diamine dihydrochloride] | < 50 |
| CN(C)c1ccnc(N[C@H]2CC[C@@H](NCc3ccc(Br)cc3OC(F)(F)F)CC2)n1 [Example 17, N^2-[cis-4-(4-Bromo-2-trifluoromethoxy-benzyl)-amino-cyclohexyl]-N^4,N^4-dimethyl-pyrimidin-2,4-diamine dihydrochloride] | 50 to 200 |
| CN(C)c1ccnc(N[C@H]2CC[C@@H](NCCc3ccc(Br)cc3OC(F)(F)F)CC2)n1 [Example 18, N^2-{cis-4-[2-(4-Bromo-2-trifluoromethoxy-phenyl)-ethylamino]-cyclohexyl}-N^4,N^4-dimethyl-pyrimidine-2,4-diamine dihydrochloride] | < 50 |

Same assay, conditions: FLIPR/FDSS, antagonist activity vs 50 nM MCH; representative examples; read-out: IC50

| Structure (SMILES) | IC50 [nM] |
| --- | --- |
| CN(C)c1cc(N[C@H]2CC[C@@H](CNCc3ccc(Br)cc3OC(F)(F)F)CC2)nc2ccccc12 [Example 7, N^2-{cis-4-[(4-Bromo-2-trifluoromethoxy-benzyl)amino-methyl]-cyclohexyl}-N^4,N^4-dimethyl-quinoline-2,4-diamine dihydrochloride] | 11 |
| Cc1cnc(N[C@H]2CC[C@@H](NC(=O)c3ccc(F)c(F)c3)CC2)nc1N(C)C [Example 2524, N-(cis-4-{[4-(Dimethylamino)-5-methylpyrimidin-2-yl]amino}cyclohexyl)-3,4-difluorobenzamide hydrochloride] | 2.1 |

— patent US20050197350A1, “Novel quinoline, tetrahydroquinazoline, and pyrimidine derivatives and methods of treatment related to the use thereof” (TAISHO PHARMACEUTICAL CO., LTD., priority 2003, published 2005)
